US20240300945A1, “CLY SERIES COMPOUND, PREPARATION METHOD THEREFOR AND USE THEREOF IN PREPARATION OF DRUGS” (NANJING WELLBEST PHARMACEUTICAL CO., LTD, priority 2021, published 2024)

Assays:
[1] = test system: rat pulmonary fibrosis model; assay: Rat pulmonary fibrosis model (bleomycin); format: in vivo, Wistar rats; settings: 3 mg/kg·d tail vein, 14 days; for VEGFprotein in lung tissue / MMP-2 expression in lung tissue / MMP-9 expression in lung tissue / TIMP-1 expression in lung tissue / VEGF-mRNA in lung tissue: rat lung; for VEGFprotein in lung tissue: ELISA; for MMP-2 expression in lung tissue / MMP-9 expression in lung tissue / TIMP-1 expression in lung tissue: immunohistochemistry; for VEGF-mRNA in lung tissue: reverse transcription PCR; for CAT in peripheral blood / SOD in peripheral blood: rat peripheral blood
Procedure: (1) Reagents: bleomycin (4 mg/dose, Tianjin Taihe Pharmaceutical Co., Ltd.), mouse anti-mouse MMP monoclonal antibody (NEO Mark-ers Company), mouse anti-mouse TIMP-1 polyclonal antibody (Wuhan Shide Company), enzyme-linked immunosorbent assay (ELISA) kit (R&D Company of the United States), Quantscript RT Kit reverse transcription kit (Dalian TaKaRa Company).
The rats were, according to the number of body weight, divided into the blank control group, model group, and CLY series treatment group by random array method, with 12 rats in each group, half male and half female. The rats in each group were anesthetized by intraperitoneal injection of 2% pentobarbital sodium ([…]), fixed on the operating table, and injected by tracheotomy in the neck. The blank control group was injected with normal saline (1.25 ml/kg), and the model group and CLY treatment group were injected with 5 U/mL bleomycin solution (5 mg/kg), once a day, for 14 consecutive days. From one week after the establishment of the model, the corresponding CLY compound solution (3 mg/kg·d) was injected into the tail vein of each treatment group, and the same amount of normal saline was injected into the tail vein of the blank control group and the model group, once a day, for 14 consecutive days.
The peripheral venous blood of animals in each group was taken from the tail vein after modeling and 14 days after treatment, and the levels of superoxide dismutase (SOD) and catalase (CAT) in peripheral blood were measured. After taking blood from each group, the rats were sacrificed twice (after modeling and 14 days of treatment). The right lung tissue of the animals was stored in a refrigerator at −4° C. for detection of VEGF. The left lung tissue was routinely embedded in paraffin and sectioned. The expression of MMP subtype and TIMP-1 in the lung tissue of the rats was detected by immunohistochemistry. The right lung tissue was ground and homogenized, and the supernatant was taken after 3000 r/min high-speed centrifugation. The lung tissue VEGF protein was detected by ELISA, and the expression of VEGF-mRNA was detected by reverse transcription polymerase chain reaction.

RA model = assay: Rheumatoid arthritis (RA) model (Freund's adjuvant complete); format: in vivo, Wistar rats; settings: RA rats, gavage 10 mg/kg once a day, 21 days; for IL-10 in serum / IL-17 in serum: ELISA; for Joint score (arthritis score): maximum 16 points
Procedure: Freund's Adjuvant Complete (FCA, purchased from Sigma, USA); IL-10 ELISA kit (Lianke Biotechnology Co., Ltd.); IL-17 ELISA kit (Raybiotech, USA). Eighteen 5-week-old female Wistar rats were randomly divided into the control group, RA model group, and CLY series compound treatment group, with 6 rats in each group. The control group: disinfected the right toe of rats with 75% alcohol, and injected 0.15 mL physiological saline subcutaneously into the right toe of rats. The RA model group: On the first day of the experiment, each rat was routinely disinfected, and 0.15 mL of FCA was injected subcutaneously into the right foot of the rat. The CLY series compound treatment group: On the first day after the experiment, each rat was routinely disinfected, and 0.15 mL of FCA was injected subcutaneously into the right plantar of the rat. After 7 days, CLY series compound was administered by gavage with a dose of 10 mg/kg once a day. The RA model group and control group were administered by gavage with normal saline (10 mg/kg·d) every day for 21 consecutive days. On the 21st day after the intervention of CLY series compounds, 3 mL of blood was collected from the heart of rats, and the serum was isolated. The levels of IL-10 and IL-17 in the serum of rats were detected by ELISA. After the 21st day of intervention, the arthritis score of each group of rats was measured, and the swelling degree of the right toe joint of each group of rats was measured. According to the inflammatory reaction of RA rats, the severity of the ankle joint was scored as 0 to 4, which was normal; 1 point, slightly red and slightly swollen ankle joint; 2 points: erythema and slight swelling from ankle joint to metatarsal joint or metacarpal joint; 3 points: erythema and moderate swelling from ankle joint to metacarpal joint or metatarsophalangeal joint; 4 points, the ankle joint to toe joint were severely red and swollen. Added the limb scores of each rat as the arthritis score, and the maximum score was 16 points.

| Structure (SMILES) | VEGFprotein in lung tissue [1] [pg/mL] | MMP-2 expression in lung tissue [1] | MMP-9 expression in lung tissue [1] | TIMP-1 expression in lung tissue [1] | VEGF-mRNA in lung tissue [1] | CAT in peripheral blood [1] [kU/g] | SOD in peripheral blood [1] [U/ml] | Body mass (RA model) [g] | Swelling degree (right toe joint) (RA model) [mm] | IL-10 in serum (RA model) [pg/mL] | IL-17 in serum (RA model) [pg/mL] | Joint score (arthritis score) (RA model) |
| --- | --- | --- | --- | --- | --- | --- | --- | --- | --- | --- | --- | --- |
| CN1CCC[C@@H](N(C(=O)c2ccc(-n3nnc4cccnc43)cc2)c2ncccc2Cl)C1 [CLY-1, (R)-4-(3H-[1,2,3]triazolo[4,5-b]pyridin-3-yl)-N-(3-chloropyridin-2-yl)-N-(1-methylpiperidin-3-yl)benzamide] | 52.16 ± 3.61 | 2.43 ± 0.21 | 3.32 ± 0.23 | 7.82 ± 0.45 | 0.76 ± 0.11 | 14.13 ± 1.22 | 214.58 ± 13.53 | 354.5 ± 13.48 | 9.7 ± 0.68 | 65.36 ± 6.78 | 46.15 ± 4.23 | 4.35 ± 0.37 |
| CCN1CCC[C@@H](N(C(=O)c2ccc(-n3nnc4cccnc43)cc2)c2ncccc2Cl)C1 [CLY-2, (R)-4-(3H-[1,2,3]triazolo[4,5-b]pyridin-3-yl)-N-(3-chloropyridin-2-yl)-N-(1-ethylpiperidin-3-yl)benzamide] | 51.18 ± 3.69 | 2.51 ± 0.24 | 3.36 ± 0.25 | 8.06 ± 0.49 | 0.71 ± 0.12 | 14.28 ± 1.39 | 216.62 ± 13.55 | 358.2 ± 13.92 | 9.4 ± 0.53 | 67.03 ± 7.02 | 46.23 ± 3.96 | 4.21 ± 0.29 |
| O=C(c1ccc(-n2nnc3cccnc32)cc1)N(c1ncccc1Cl)[C@@H]1CCNC1 [CLY-8, (R)-4-(3H-[1,2,3]triazolo[4,5-b]pyridin-3-yl)-N-(3-chloropyridin-2-yl)-N-(pyrrolidin-3-yl)benzamide] | 53.16 ± 3.62 | 2.44 ± 0.21 | 3.31 ± 0.21 | 8.82 ± 0.53 | 0.79 ± 0.13 | 14.75 ± 1.22 | 220.86 ± 13.78 | 363.5 ± 13.63 | 9.5 ± 0.72 | 66.75 ± 6.78 | 43.51 ± 4.16 | 4.32 ± 0.41 |
| NC1CCCC(N(C(=O)c2ccc(-n3nnc4cccnc43)cc2)c2ncccc2Cl)C1 (stereo not shown) [CLY-11] | 49.86 ± 3.58 | 2.52 ± 0.23 | 3.53 ± 0.26 | 8.13 ± 0.38 | 0.76 ± 0.13 | 13.96 ± 1.36 | 216.48 ± 13.16 | – | – | – | – | – |
| O=C(c1ccc(-c2ccccc2Cl)cc1)N(c1ncccc1Cl)[C@@H]1CCCNC1 [CLY-36] | 53.87 ± 3.73 | 2.59 ± 0.23 | 3.46 ± 0.25 | 7.63 ± 0.52 | 0.83 ± 0.13 | 13.26 ± 1.26 | 221.76 ± 13.57 | 352.6 ± 12.96 | 9.3 ± 0.51 | 58.96 ± 5.89 | 44.18 ± 3.97 | 4.46 ± 0.42 |
